What was measured:
[1] = system: CD4+/CD25+/FoxP3+ cells; test: FITC-PIF binding to regulatory T-cells, two- and three-color flow cytometry; format: cell-based, human; details: 0-100 uM FITC-labelled peptide
[2] = system: Lymphocytes; test: FITC-PIF binding to mare immune cells, flow cytometry: lymphocytes; format: cell-based
Source text: (§1) Method: whole blood was collected from jugular vein of pregnant (n=4) and non-pregnant (n=8) mares into lithium heparin vacutainers. Whole blood was layered over histopaque (Sigma) density gradient and red cells were allowed to settle through the gradient, leaving a leukocyte-rich plasma layer above. Cells were washed twice in sterile PBS and any remaining RBCs lysed with 0.16 M ammonium chloride solution. […] Cell types were separated based upon their scatter characteristics. […] FIG. 20 and Table 20 show mean+/−SEM in both pregnant and non-pregnant mares, and depicts binding characteristics showing significant differences between FITC-PIF and control, P<0.001.

[3] = system: Granulocytes; test: FITC-PIF binding to mare immune cells, flow cytometry: granulocytes; format: cell-based
Source text: as §1

[4] = system: Monocytes; test: FITC-PIF binding to mare immune cells, flow cytometry: monocytes; format: cell-based
Source text: as §1

[5] = Non-pregnant mares, 1 ug/ml FITC-labelled peptide (n = 8)
[6] = Non-pregnant mares, 5 ug/ml FITC-labelled peptide (n = 8)
[7] = Non-pregnant mares, 10 ug/ml FITC-labelled peptide (n = 7)
[8] = Pregnant mares, 1 ug/ml FITC-labelled peptide (n = 4)
[9] = Pregnant mares, 5 ug/ml FITC-labelled peptide (n = 4)
[10] = Pregnant mares, 10 ug/ml FITC-labelled peptide (n = 4)

Which “binding to CD4+/CD25+/FoxP3+ cells” value [1] does the source give for “GRVDPSNKSMPKDIA (scrPIF-1 (15)) [PIFscr, control]” here?
Its value is “minimal binding”.

What about the “binding to Lymphocytes, Mean” value [2, 5] of the same sequence?
Its value is 0.27.

And the “binding to Lymphocytes, Mean” value [2, 6]?
Its value is 1.08.

And the “binding to Lymphocytes, Mean” value [2, 7]?
The value was 2.04.

And the “binding to Lymphocytes, Mean” value [2, 8]?
The value was 0.12.

What about the “binding to Lymphocytes, Mean” value [2, 9] of the same sequence?
The value was 0.78.

And the “binding to Lymphocytes, Mean” value [2, 10]?
The value was 2.84.

And the “binding to Granulocytes, Mean” value [3, 5]?
The value was 0.26.

And the “binding to Granulocytes, Mean” value [3, 6]?
Its value is 1.78.

What about the “binding to Granulocytes, Mean” value [3, 7] of the same sequence?
Its value is 3.89.

What about the “binding to Granulocytes, Mean” value [3, 8] of the same sequence?
Its value is 0.09.

And the “binding to Granulocytes, Mean” value [3, 9]?
The value was 0.93.

What about the “binding to Granulocytes, Mean” value [3, 10] of the same sequence?
Its value is 4.51.

And the “binding to Monocytes, Mean” value [4, 5]?
The value was 1.10.

And the “binding to Monocytes, Mean” value [4, 6]?
The value was 5.20.

What about the “binding to Monocytes, Mean” value [4, 7] of the same sequence?
The value was 12.39.

What about the “binding to Monocytes, Mean” value [4, 8] of the same sequence?
Its value is 0.78.

And the “binding to Monocytes, Mean” value [4, 9]?
Its value is 6.36.

What about the “binding to Monocytes, Mean” value [4, 10] of the same sequence?
Its value is 31.07.

Source: patent US20180318386A1, “PEPTIDES AND METHODS OF TREATING ENDOMETRIOSIS USING THE SAME” (BIOINCEPT, LLC, priority 2014, published 2018)
